Measurements as given in the supplement of paper PMC10307832.

Legend:
Test in all cases: relative viability (nuclei count vs DMSO), 5 days (fraction); higher = more cells survive
ALW-II-49-7 + Trametinib = compound: Cc1ccc(C(=O)Nc2cccc(C(F)(F)F)c2)cc1Nc1cncc(C(N)=O)c1 [ALW-II-49-7] + CC(=O)Nc1cccc(-n2c(=O)n(C3CC3)c(=O)c3c(Nc4ccc(I)cc4F)n(C)c(=O)c(C)c32)c1 [Trametinib] (partner 0.02 µM)
Method in brief: (§1)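 The day after seeding in 1536-well plates, lung cancer cell lines were treated by pin tool with a single drug, or with a fixed anchor-drug dose together with five library-drug doses (not always all listed) in √10 steps. After 5 days, a combined fix-and-stain solution (final 0.05% Triton X-100, 1% formaldehyde, 1 ug/ml Hoechst) was added. Nuclei counted on 4× images gave relative viability as treated counts over vehicle counts, reported as the median of duplicate plates.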

Dasatinib + Trametinib = compound: Cc1nc(Nc2ncc(C(=O)Nc3c(C)cccc3Cl)s2)cc(N2CCN(CCO)CC2)n1 [Dasatinib] + CC(=O)Nc1cccc(-n2c(=O)n(C3CC3)c(=O)c3c(Nc4ccc(I)cc4F)n(C)c(=O)c(C)c32)c1 [Trametinib] (partner 0.02 µM)
Method in brief: as §1

XMD13-2 + Vorinostat = compound: C1CC1C(=O)NC2=NNC3=C2C=CC(=C3)C4=CC(=CC=C4)C(=O)NC5CC5 [XMD13-2] + O=C(CCCCCCC(=O)Nc1ccccc1)NO [Vorinostat] (partner 1 µM)
Method in brief: as §1

Dasatinib + Tozasertib = compound: Cc1nc(Nc2ncc(C(=O)Nc3c(C)cccc3Cl)s2)cc(N2CCN(CCO)CC2)n1 [Dasatinib] + Cc1cc(Nc2cc(N3CCN(C)CC3)nc(Sc3ccc(NC(=O)C4CC4)cc3)n2)n[nH]1 [Tozasertib] (partner 0.1 µM)
Method in brief: as §1

UMC-11 showed a relative viability (ALW-II-49-7 + Trametinib; first compound 0.08 µM) of 0.791, a relative viability (ALW-II-49-7 + Trametinib; first compound 0.253 µM) of 0.69 and a relative viability (ALW-II-49-7 + Trametinib; first compound 0.8 µM) of 0.896. The relative viability (ALW-II-49-7 + Trametinib; first compound 2.53 µM) was 0.821, the relative viability (ALW-II-49-7 + Trametinib; first compound 8 µM) was 0.599 and the relative viability (Dasatinib + Trametinib; first compound 0.005 µM) was 0.675. It also gave a relative viability (Dasatinib + Trametinib; first compound 0.01581 µM) of 0.63, a relative viability (Dasatinib + Trametinib; first compound 0.05 µM) of 0.631 and a relative viability (Dasatinib + Trametinib; first compound 0.1581 µM) of 0.358. For the same cell line, the relative viability (Dasatinib + Trametinib; first compound 0.5 µM) was 0.317, the relative viability (XMD13-2 + Vorinostat; first compound 0.05 µM) was 0.356 and the relative viability (XMD13-2 + Vorinostat; first compound 0.1581 µM) was 0.413. The relative viability (XMD13-2 + Vorinostat; first compound 0.5 µM) was 0.459, the relative viability (XMD13-2 + Vorinostat; first compound 1.581 µM) was 0.396 and the relative viability (XMD13-2 + Vorinostat; first compound 5 µM) was 0.318. For the same cell line, the relative viability (Dasatinib + Tozasertib; first compound 0.005 µM) was 0.196, the relative viability (Dasatinib + Tozasertib; first compound 0.01581 µM) was 0.203 and the relative viability (Dasatinib + Tozasertib; first compound 0.05 µM) was 0.193. It also gave a relative viability (Dasatinib + Tozasertib; first compound 0.1581 µM) of 0.184 and a relative viability (Dasatinib + Tozasertib; first compound 0.5 µM) of 0.172.
